# Measured values reported in PubChem BioAssay (NCI).
#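 Tested at 5 concentrations; 48 h exposure; 96-well plates; endpoints linearly interpolated, else capped at highest concentration. GI50: concentration for 50% inhibition of growth. TGI is the concentration that stops growth completely.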
# Columns and labels:
# Assay in all cases: growth of human tumour cells (NCI), 48 h
# [1] = system: 786-0 renal
# [2] = system: A498 renal
# [3] = system: A549 NSCLC
# [4] = system: ACHN renal
# [5] = system: BT-549 breast
# [6] = system: CAKI-1 renal
# [7] = system: CCRF-CEM leukemia
# [8] = system: COLO 205 colon
# [9] = system: DU-145 prostate
# [10] = system: EKVX NSCLC
# [11] = system: HCC-2998 colon
# [12] = system: HCT-116 colon
# [13] = system: HCT-15 colon
# [14] = system: HL-60(TB) leukemia
# [15] = system: HOP-62 NSCLC
# [16] = system: HOP-92 NSCLC
# [17] = system: HT29 colon
# [18] = system: IGROV1 ovarian
# [19] = system: K-562 leukemia
# [20] = system: KM12 colon
# [21] = system: LOX IMVI melanoma
# [22] = system: M14 melanoma
# [23] = system: MALME-3M melanoma
# [24] = system: MCF7 breast
# [25] = system: MDA-MB-231 breast
# [26] = system: MDA-MB-435
# [27] = system: MOLT-4 leukemia
# [28] = system: NCI-H226 lung
# [29] = system: NCI-H460 lung
# [30] = system: NCI-H522 lung
# [31] = system: NCI/ADR-RES ovarian
# [32] = system: OVCAR-3 ovarian
# [33] = system: OVCAR-4 ovarian
# [34] = system: OVCAR-5 ovarian
# [35] = system: OVCAR-8 ovarian
# [36] = system: PC-3 prostate
# [37] = system: RPMI-8226 leukemia
# [38] = system: RXF 393 renal
# [39] = system: SF-268 CNS
# [40] = system: SF-295 CNS
# [41] = system: SF-539 CNS
# [42] = system: SK-MEL-2 melanoma
# [43] = system: SK-MEL-28 melanoma
# [44] = system: SK-MEL-5 melanoma
# [45] = system: SK-OV-3 ovarian
# [46] = system: SN12C renal
# [47] = system: SNB-19 CNS
# [48] = system: SNB-75 CNS
# [49] = system: SR leukemia
# [50] = system: SW-620 colon
# [51] = system: T-47D breast
# [52] = system: TK-10 renal
# [53] = system: U251 CNS
# [54] = system: UACC-257 melanoma
# [55] = system: UACC-62 melanoma
# [56] = system: UO-31 renal
smiles,measurement,setting,value
C/C(=N\NC(=S)Nc1ccc(Br)cc1)c1cc2ccccc2oc1=O,GI50,[1],2.46 µM
same,TGI,[1],13.5 µM
same,GI50,[2],14.4 µM
same,TGI,[2],31.4 µM
same,GI50,[3],2.39 µM
same,TGI,[3],13.4 µM
same,GI50,[4],0.76 µM
same,TGI,[4],17.1 µM
same,GI50,[5],1.26 µM
same,TGI,[5],6.36 µM
same,GI50,[6],0.561 µM
same,TGI,[6],9.94 µM
same,GI50,[7],0.464 µM
same,TGI,[7],9.51 µM
same,GI50,[8],3.34 µM
same,TGI,[8],12.1 µM
same,GI50,[9],1.79 µM
same,TGI,[9],25.8 µM
same,GI50,[10],2.85 µM
same,TGI,[10],30.8 µM
same,GI50,[11],1.69 µM
same,TGI,[11],5.52 µM
same,GI50,[12],0.579 µM
same,TGI,[12],12.5 µM
same,GI50,[13],0.404 µM
same,TGI,[13],13.5 µM
same,GI50,[14],0.44 µM
same,TGI,[14],3.08 µM
same,GI50,[15],0.841 µM
same,TGI,[15],12.6 µM
same,GI50,[16],1.21 µM
same,TGI,[16],18 µM
same,GI50,[17],3.72 µM
same,TGI,[17],14.4 µM
same,GI50,[18],0.84 µM
same,TGI,[18],15.3 µM
same,GI50,[19],0.42 µM
same,TGI,[19],21.1 µM
same,GI50,[20],0.6 µM
same,TGI,[20],8.23 µM
same,GI50,[21],0.53 µM
same,TGI,[21],5.34 µM
same,GI50,[22],0.604 µM
same,TGI,[22],2.22 µM
same,GI50,[23],1.12 µM
same,TGI,[23],7 µM
same,GI50,[24],0.87 µM
same,TGI,[24],10.9 µM
same,GI50,[25],0.956 µM
same,TGI,[25],25.2 µM
same,GI50,[26],0.353 µM
same,TGI,[26],11.9 µM
same,GI50,[27],0.46 µM
same,TGI,[27],12 µM
same,GI50,[28],1.28 µM
same,TGI,[28],5.24 µM
same,GI50,[29],0.462 µM
same,TGI,[29],4.58 µM
same,GI50,[30],0.582 µM
same,TGI,[30],4.68 µM
same,GI50,[31],0.523 µM
same,TGI,[31],12.8 µM
same,GI50,[32],0.427 µM
same,TGI,[32],13 µM
same,GI50,[33],2.24 µM
same,TGI,[33],49.7 µM
same,GI50,[34],2.46 µM
same,TGI,[34],14.2 µM
same,GI50,[35],1.12 µM
same,TGI,[35],11.1 µM
same,GI50,[36],0.833 µM
same,TGI,[36],14 µM
same,GI50,[37],1.21 µM
same,TGI,[37],11.2 µM
same,GI50,[38],1.45 µM
same,TGI,[38],4 µM
same,GI50,[39],0.883 µM
same,TGI,[39],17.2 µM
same,GI50,[40],2.49 µM
same,TGI,[40],7.18 µM
same,GI50,[41],1.33 µM
same,TGI,[41],10.5 µM
same,GI50,[42],0.789 µM
same,TGI,[42],8.34 µM
same,GI50,[43],0.872 µM
same,TGI,[43],13.1 µM
same,GI50,[44],1.19 µM
same,TGI,[44],3.5 µM
same,GI50,[45],3.12 µM
same,TGI,[45],11.6 µM
same,GI50,[46],1.59 µM
same,TGI,[46],15.2 µM
same,GI50,[47],1.41 µM
same,TGI,[47],24.6 µM
same,GI50,[48],0.615 µM
same,TGI,[48],4.27 µM
same,GI50,[49],0.314 µM
same,TGI,[49],2.33 µM
same,GI50,[50],0.892 µM
same,TGI,[50],15.7 µM
same,GI50,[51],0.952 µM
same,TGI,[51],11.9 µM
same,GI50,[52],4.65 µM
same,TGI,[52],28.3 µM
same,GI50,[53],0.64 µM
same,TGI,[53],12 µM
same,GI50,[54],2.24 µM
same,TGI,[54],8.56 µM
same,GI50,[55],0.476 µM
same,TGI,[55],3.71 µM
same,GI50,[56],0.587 µM
same,TGI,[56],10.4 µM
